Positions of bridges follow the written chain, without caps; N, C: chain ends. No end group written: not given here.
Key:
HUVEC = assay: Capillary (pseudo-)tube formation on Matrigel; type: cell-based, human
Experimental: Figure 2. NC1(XIX) and F4 inhibit endothelial cell in vitro pseudotube formation. 50,000 HUVEC were seeded in Matrigel coated well of a 48 well-plate and incubated with or without 40 μM NC1(XIX) or F4. Pseudotube formation was observed and photographed under an inverted microscope after 8 hours (a). The number of segments, of nodes and the total length of pseudotubes were quantified by the ImageJ software, using the Angiogenesis Analyzer tool (b). The values are the means ± SD (n = 8 replicates). *** p < 0.001). The experiment was repeated three times (N = 3)
Human Umbilical Vein Endothelial Cells (HUVEC) (Ref C-12253) were purchased from Promocell. They were grown in Endothelial Cell Growth Medium (ECGM) (Promocell, Ref C-22110: Basal medium supplemented with 0.02 mL/mL Fetal Calf Serum, 0.004 mL/mL Endothelial Cell Growth Supplement, 0.1 ng/mL Epidermal Growth Factor (recombinant human), 1 ng/mL Basic Fibroblast Growth Factor (recombinant human), 90 μg/mL Heparin, 1 μg/mL Hydrocortisone) at +37°C in a humid atmosphere containing 5% CO2. PromoCell Detach Kit was used for the detachment of HUVEC according to the manufacturer’s protocols (Promocell, ref C-41200).
The ability of HUVEC to form pseudo-tubes was investigated on Matrigel (Corning, ref 356237). Matrigel was loaded into 48-well plate and allowed to polymerize at +37°C for 2 h. 50,000 HUVEC suspended in Basal media supplemented with 0.004 mL/mL Endothelial Cell Growth Supplement, 90 μg/mL Heparin, 1 μg/mL Hydrocortisone with or without 40 μM NC1(XIX) or F4 were seeded into each well. Plates were incubated at +37°C in a humid atmosphere containing 5% CO2, 95% for 8 h. The formation of the capillary network was then imaged under an inverted light microscope. Quantitative evaluation of the capillary network was performed using the angiogenesis analyzer tool of ImageJ analysis software. The number of nodes, of segments and the total length of the capillary network were determined.

α5β1 integrin = assay: F4 affinity chromatography of HUVEC extracts with western blot; type: binding, human; conditions: HUVEC protein extract, F4 peptide-Sepharose (F4 reduced with DTT), NaCl elution 0.15, 0.6 and 1.0 M, +4°C, N = 2
Experimental: (§1) HUVEC were cultured as previously described in a Nunclon® 150 cm^2 flask. At 80%-confluence, cells were washed with HBSS and scrapped in lysis buffer (RIPA buffer, Sigma, ref R0278-50ML) supplemented with 1% (v/v) Halt Protease Inhibitor Cocktail (ThermoFisher, ref 78430). Cell lysates were incubated for 30 min at +4°C and vortexed every 5 min. Unsoluble debris were pelleted by centrifugation at 10,000 g for 10 min at +4°C. Bio-Rad Protein Assay (Bio-Rad, Marne-La-Coquette, France) was used to determine the protein concentrations according to the manufacturer’s instructions. […] HUVEC protein extracts were chromatographed at +4°C. Unbound protein were removed with 30 mL of washing buffer (10 mM Tris, 1 mM CaCl2, 1 mM MgCl2, pH 7.6, 1% (v/v) Protease Inhibitor Cocktail and 0.1% (w/v) octylglucoside (Sigma, ref O8001-100 MG)) according to the manufacturer’s instructions. Proteins bound to the affinity column were then eluted with elution buffer (10 mM Tris, pH 7.6, 1% (w/v) PIC and 0.1% (w/v) octylglucoside) supplemented with increasing concentrations of NaCl (0.15, 0.6 and 1 M). Absorbance was read at 280 nm to check protein elution and fractions corresponding to the different NaCl concentrations were pooled and concentrated using NanoSep Centrifugal Devices (cutoff 10 kDa; Pall). […]

αvβ3 integrin = assay: as above; type: binding, human; conditions: HUVEC protein extract, F4 peptide-Sepharose (F4 reduced with DTT), NaCl elution 0.15, 0.6 and 1.0 M, +4°C, N = 2
Experimental: as §1

[1] = 40 µM, 8 h, 50,000 HUVEC on Matrigel, ImageJ Angiogenesis Analyzer, p < 0.001 for NC1(XIX) and F4, n = 8, N = 3

Sequence: CNPEDCLYPVSHAHQR (disulfide 1-6 (inferred)) [F4, collagen XIX-derived peptide, released by plasmin from type XIX collagen]
- decrease of the number of nodes vs control (HUVEC; [1]): 77%
- decrease of the number of segments vs control (HUVEC; [1]): 52%
- decrease of the total length of capillary tubes vs control (HUVEC; [1]): 49%
- inhibition of capillary network, F4 compared with NC1(XIX) (HUVEC; 40 µM, 8 h, HUVEC on Matrigel): stronger inhibition of the number of nodes, segments and of the total length of capillary network than NC1(XIX) peptide
- inhibition of pseudo-tube formation (HUVEC; 40 µM, 8 h, HUVEC on Matrigel, compared to control): strongly inhibited pseudo-tube formation
- inhibition of VEGF-induced pseudo-tube formation (HUVEC; endothelial cells on Matrigel (abstract)): inhibited VEGF-induced pseudo-tube formation
- anti-angiogenic effect on pseudo-tube formation, F4 compared with NC1(XIX) (discussion) (HUVEC; in vitro): even greater than the whole NC1(XIX) domain
- α5 and β1 subunits bound to F4 column (western blot) (α5β1 integrin): two bands in 0.6 M NaCl eluted sample which matched the 140 and 120 kDa bands of the recombinant α5β1 integrin
- αv and β3 subunits bound to F4 column (western blot) (αvβ3 integrin): two bands which matched the 150 and 110 kDa bands of the recombinant αvβ3 integrin
